Data published in patent publication US20020137929A1, “1 - (3-heterocyclylphenyl) isothiourea, -isourea, -guanidine and -amidine herbicidal agents” (Intellectual Property Department, BASF Aktiengesellschaft, priority 1998, published 2002).

Legend:
[1] = system: AMBEL (Ragweed, Common); assay: Preemergence herbicidal evaluation; format: in vivo, Ambrosia artemisifolia; details: rated 4-5 weeks after treatment
Outline: (§1)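 Test compound, dissolved in aqueous acetone, was sprayed over planted soil cups at an equivalent of about 0.0156 to 0.500 kg/ha; seeds had been mixed with potting soil. Greenhouse growth followed, with visual 0-9 scoring of injury at four to five weeks.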

[2] = system: GALAP (Galium); assay: Postemergence herbicidal evaluation; format: in vivo, Galium aparine; details: postemergence
Outline: (§2)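 Rate range approx. 0.0156–0.500 kg/ha. Foliar application at 40 psi to ~2-week seedlings; surfactant 0.5% TWEEN 20 in 50/50 acetone/water. Evaluation 4–5 wk post-treatment by 0–9 visual injury score, means of replicate tests.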

[3] = system: CYPSE (Flatsedge); assay: Preemergence weed control under flooded paddy conditions; format: in vivo, Cyperus serotinus; details: rated 3-4 weeks after treatment
Outline: (§3)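 Ratings on a 0-9 visual scale cover stand, vigor, malformation, size, chlorosis and overall appearance relative to a control, taken three to four weeks post-treatment. Application was into flood water over freshly sown silt loam at roughly 0.0313 to 0.500 kg/ha.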

[4] = system: SAGPY (Arrowhead (Pygmaea)); assay: Postemergence weed control under flooded paddy conditions; format: in vivo, Sagittaria pygmaea; details: postemergence weeds, 3-4 weeks after treatment
Outline: (§4)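 Flood-water application, about 0.0313–0.500 kg/ha a.i. in aqueous/acetone 50/50 v/v; water depth 1.5–3 cm throughout. Weeds 3–5 cm, rice 1.5–2.5 leaf. Greenhouse; 0–9 visual rating vs control at 3–4 wk.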

[5] = system: CYPSE (Flatsedge); assay: as above; format: in vivo, Cyperus serotinus; details: postemergence weeds, 3-4 weeks after treatment
Outline: as §4

[6] = system: ORYSAT (Rice, Tebonnet); assay: Postemergence herbicidal evaluation; format: in vivo, Oryza sativa, (L.) Tebonnet; details: postemergence
Outline: as §2

[7] = system: GLXMAW (Soybean, Williams); assay: Preemergence herbicidal evaluation; format: in vivo, Glycine max, (L.) Merr. cv Williams; details: rated 4-5 weeks after treatment
Outline: as §1

[8] = system: CASOB (Sicklepod); assay: Postemergence herbicidal evaluation; format: in vivo, Cassia obtusifolia; details: postemergence
Outline: as §2

[9] = system: CHEAL (Lambsquarters, Common); assay: Postemergence herbicidal evaluation; format: in vivo, Chenopodium album; details: postemergence
Outline: as §2

[10] = system: CYPIR (Rice Flatsedge); assay: Postemergence weed control under flooded paddy conditions; format: in vivo, Cyperus iria; details: postemergence weeds, 3-4 weeks after treatment
Outline: as §4

[11] = system: ZEAMX (Corn, Field); assay: Postemergence herbicidal evaluation; format: in vivo, Zea mays; details: postemergence
Outline: as §2

[12] = system: ORYSAT (Rice, Tebonnet); assay: Preemergence herbicidal evaluation; format: in vivo, Oryza sativa, (L.) Tebonnet; details: rated 4-5 weeks after treatment
Outline: as §1

[13] = system: MOOVA (Monochoria); assay: Preemergence weed control under flooded paddy conditions; format: in vivo, Monochoria vaginalis; details: rated 3-4 weeks after treatment
Outline: as §3

[14] = system: SETVI (Foxtail, Green); assay: Preemergence herbicidal evaluation; format: in vivo, Setaria viridis; details: rated 4-5 weeks after treatment
Outline: as §1

`CCOC(=O)CN1C(=O)CO/C1=N/c1cc(-n2c(=O)cc(C(F)(F)F)n(C)c2=O)c(F)cc1Cl` [Compound 22, Ethyl 2-{{2-chloro-5-[3,6-dihydro-3-methyl-2,6-dioxo-4-(trifluoromethyl)-1(2H)-pyrimidinyl]-4-fluorophenyl}imino}-4-oxo-3-oxazolidineacetate] was tested, and the “AMBEL preemergence herbicidal rating” value ([1]; rate 0.0156 kg/ha) was 0.0, the “AMBEL preemergence herbicidal rating” value ([1]; rate 0.0313 kg/ha) was 5.0 and the “AMBEL preemergence herbicidal rating” value ([1]; rate 0.0625 kg/ha) was 7.0. For the same compound, the “AMBEL preemergence herbicidal rating” value ([1]; rate 0.1250 kg/ha) was 9.0, the “AMBEL preemergence herbicidal rating” value ([1]; rate 0.2500 kg/ha) was 9.0 and the GALAP herbicidal rating ([2]; rate 0.0158 kg/ha) was 4.0. The GALAP herbicidal rating ([2]; rate 0.0315 kg/ha) was 4.0, the GALAP herbicidal rating ([2]; rate 0.0630 kg/ha) was 3.0 and the “Herbicidal rating CYPSE” value ([3]; 0.1160 kg/ha) was 4.0. For the same compound, the “Herbicidal rating CYPSE” value ([3]; 0.2310 kg/ha) was 4.0, the “Herbicidal rating CYPSE” value ([3]; 0.4630 kg/ha) was 4.0 and the “Herbicidal rating SAGPY” value ([4]; rate 0.1160 kg/ha) was 4.0. For the same compound, the “Herbicidal rating SAGPY” value ([4]; rate 0.2310 kg/ha) was 4.0, the “Herbicidal rating SAGPY” value ([4]; rate 0.4630 kg/ha) was 5.0 and the “Herbicidal rating CYPSE” value ([5]; rate 0.1160 kg/ha) was 4.0. For the same compound, the “Herbicidal rating CYPSE” value ([5]; rate 0.2310 kg/ha) was 4.0, the “Herbicidal rating CYPSE” value ([5]; rate 0.4630 kg/ha) was 4.0 and the ORYSAT herbicidal rating ([6]; rate 0.0158 kg/ha) was 2.5. For the same compound, the ORYSAT herbicidal rating ([6]; rate 0.0315 kg/ha) was 3.0, the ORYSAT herbicidal rating ([6]; rate 0.0630 kg/ha) was 4.5 and the “GLXMAW preemergence herbicidal rating” value ([7]; rate 0.0156 kg/ha) was 0.0. For the same compound, the “GLXMAW preemergence herbicidal rating” value ([7]; rate 0.0313 kg/ha) was 0.0, the “GLXMAW preemergence herbicidal rating” value ([7]; rate 0.0625 kg/ha) was 3.0 and the “GLXMAW preemergence herbicidal rating” value ([7]; rate 0.1250 kg/ha) was 7.0. For the same compound, the “GLXMAW preemergence herbicidal rating” value ([7]; rate 0.2500 kg/ha) was 9.0, the CASOB herbicidal rating ([8]; rate 0.0158 kg/ha) was 1.0 and the CASOB herbicidal rating ([8]; rate 0.0315 kg/ha) was 2.0. For the same compound, the CASOB herbicidal rating ([8]; rate 0.0630 kg/ha) was 1.0, the CHEAL herbicidal rating ([9]; rate 0.0158 kg/ha) was 4.0 and the CHEAL herbicidal rating ([9]; rate 0.0315 kg/ha) was 6.0. For the same compound, the CHEAL herbicidal rating ([9]; rate 0.0630 kg/ha) was 3.0, the “Herbicidal rating CYPIR” value ([10]; rate 0.1160 kg/ha) was 0.0 and the “Herbicidal rating CYPIR” value ([10]; rate 0.2310 kg/ha) was 0.0. For the same compound, the “Herbicidal rating CYPIR” value ([10]; rate 0.4630 kg/ha) was 5.0, the ZEAMX herbicidal rating ([11]; rate 0.0158 kg/ha) was 7.0 and the ZEAMX herbicidal rating ([11]; rate 0.0315 kg/ha) was 7.5. For the same compound, the ZEAMX herbicidal rating ([11]; rate 0.0630 kg/ha) was 7.5, the “ORYSAT preemergence herbicidal rating” value ([12]; rate 0.0156 kg/ha) was 0.0 and the “ORYSAT preemergence herbicidal rating” value ([12]; rate 0.0313 kg/ha) was 0.0. The “ORYSAT preemergence herbicidal rating” value ([12]; rate 0.0625 kg/ha) was 0.0, the “ORYSAT preemergence herbicidal rating” value ([12]; rate 0.1250 kg/ha) was 5.0 and the “ORYSAT preemergence herbicidal rating” value ([12]; rate 0.2500 kg/ha) was 8.0. For the same compound, the “Herbicidal rating MOOVA” value ([13]; 0.1160 kg/ha) was 9.0, the “Herbicidal rating MOOVA” value ([13]; 0.2310 kg/ha) was 9.0 and the “Herbicidal rating MOOVA” value ([13]; 0.4630 kg/ha) was 9.0. The “SETVI preemergence herbicidal rating” value ([14]; rate 0.0156 kg/ha) was 0.0, the “SETVI preemergence herbicidal rating” value ([14]; rate 0.0313 kg/ha) was 7.0 and the “SETVI preemergence herbicidal rating” value ([14]; rate 0.0625 kg/ha) was 9.0. The “SETVI preemergence herbicidal rating” value ([14]; rate 0.1250 kg/ha) was 9.0 and the “SETVI preemergence herbicidal rating” value ([14]; rate 0.2500 kg/ha) was 9.0.
